Measured values from publication PMC10022191, “Safety, tolerability, pharmacokinetics, and antiviral activity of the novel core protein allosteric modulator ZM-H1505R (Canocapavir) in chronic hepatitis B patients: a randomized multiple-dose escalation trial” (BMC Medicine, 2023).
“Also recorded” adds a separate entry of the source.

What was measured:
genotype D HBV = assay: primary human hepatocyte (PHH) assay, extracellular HBV DNA by qPCR
Method: To determine the anti-HBV activity of ZM-H1505R, the primary human hepatocyte (PHH) assay was performed in vitro. One day after infection with genotype D HBV, ZM-H1505R was added to the culture medium of PHH. The culture medium supplemented with ZM-H1505R was changed every two days. The culture supernatants were collected, of which the extracellular HBV DNA content was measured by qPCR.

[1] = phase 1b trial: plasma pharmacokinetics in CHB patients; settings: for mean plasma trough concentration relative to protein-binding adjusted HBV DNA EC50 (135 ng/mL): day 28
Method: Blood samples for Canocapavir PK analysis were collected at different time points, and were collected and placed into a vacutainer with an anticoagulant (K2-EDTA), followed by centrifugation at 2,000 g and 4 °C for 10 min to collect the plasma.
All of these parameters in the treatment cohorts were analyzed using the descriptive statistics methods provided by SAS 9.1 software (Cary, NC, USA). The dose proportionality of Canocapavir was evaluated by the power model and the linear fixed-effect model. Descriptive analysis was used for safety, tolerability and antiviral activity indexes. Please see Additional file 1 for the detailed methodology.
The concentration of Canocapavir was determined using a validated high-performance liquid chromatography-tandem mass spectrometry method of FRONTAGE Laboratories (Shanghai, China), with a detection range of 10–10,000 ng/mL.
Blood samples for Canocapavir PK analysis were collected at different time points, including preadministration (30 min predosing) and 0.5, 1, 2, 3, 4, 6, 8, 12, and 24 h postdosing on day 1; predosing on days 8, 15, 22, 27, and 28; and 0.5, 1, 2, 3, 4, 6, 8, 12, 24, 48, and 72 h postdosing on day 28.

HBV = assay: phase 1b trial: antiviral activity (serum HBV markers) in CHB patients; format: in vivo, Hepatitis B virus
Method: The changes in the serum levels of HBV DNA, HBV pgRNA, HBcrAg, HBsAg, HBsAb, HBeAg, HBeAb, and HBcAb at different time points were examined. Blood samples were collected on the initial screening day (baseline) and days 1, 8, 15, 22, 29, 43 ± 1, and 57 ± 2 postdosing.
The HBV DNA level was measured using a COBAS TaqMan kit (Roche Diagnostics, Pleasanton, CA, USA), according to the manufacturer’s instructions. The lowest detectable level using this kit was 20 IU/mL. The serum levels of HBeAg and HBsAg were quantitatively assessed by a chemiluminescence method using Abbott Architect assays (Abbott Diagnostics; Abbott Park, IL, USA). The lowest detectable level of the kit for HBeAg and HBsAg were 1 and 0.05 IU/mL, respectively.

[2] = cited from earlier work
[3] = 100 mg q.d., single patient with ALT flare

## O=C1CO[C@H](c2cn(-c3ccc(Br)cc3)nc2-c2ccc(F)cc2)N1CCc1ccc2[nH]c(=O)[nH]c2c1 [Canocapavir]
Genotype D HBV; protein-binding adjusted
  protein binding-adjusted HBV DNA EC50: 0.135 µg/mL
  protein binding-adjusted HBV DNA EC90: 0.937 µg/mL
Genotype D HBV; read-out: EC50, inhibition of extracellular HBV DNA generation, PHH infected with genotype D HBV
  EC50: 12.3 nM
Genotype D HBV; read-out: EC90, inhibition of extracellular HBV DNA generation, PHH infected with genotype D HBV
  EC90: 83.3 nM
[1]; 100 mg q.d.
  mean plasma trough concentration relative to protein-binding adjusted HBV DNA EC50 (135 ng/mL): 7.0 fold
[1]; 200 mg q.d.
  mean plasma trough concentration relative to protein-binding adjusted HBV DNA EC50 (135 ng/mL): 14.6 fold
[1]; human, in vivo
  power model slope (regression coefficient) of exposure (Cmax and AUC) vs dose: 0.82–1.14
  time to maximum concentration (Tmax): 2 to 3 h
[1]; human, in vivo, 50 mg
  AUC0-∞: 25,625.6 ± 15,804.7 h·ng/mL
  CL/F: 3.4 ± 1.5 L/h
  Vz/F: 61.4 ± 23.0 L
  t1/2: 13.0 ± 1.9 h
[1]; human, in vivo, 100 mg
  AUC0-∞: 59,399.0 ± 18,159.0 h·ng/mL
  CL/F: 2.5 ± 0.6 L/h
  Tmax: 3.0 (2.0, 4.0) h
  Vz/F: 42.3 ± 10.9 L
  t1/2: 12.1 ± 3.7 h
[1]; human, in vivo, 200 mg
  AUC0-∞: 120,090.0 ± 57,318.9 h·ng/mL
  CL/F: 3.3 ± 2.0 L/h
  Vz/F: 73.6 ± 43.4 L
  mean t1/2 after the last dosage: 12.1 to 15.6 h
  t1/2: 15.6 ± 2.3 h
HBV; 50 mg q.d.
  patients with HBV DNA reduced below the lower limit of quantification: 0 number of patients (percentage
  patients with HBV pgRNA reduced below the lower limit of quantification (~ 2 log10 copies/mL): 1 (12.5%) number of patients (percentage
HBV; 50 mg q.d., 28 days
  maximum mean HBcrAg decrease: -0.30 log10 kU/mL
  mean maximum HBV DNA decline from baseline: -1.54 log10 IU/mL
  mean maximum HBV pgRNA decline from baseline: -1.53 log10 copies/mL
HBV; 50 mg q.d., HBeAg (+) patient
  HBV DNA response, subject E2003 with pre-existing HBc P25S substitution: no decrease
  HBV pgRNA response, subject E2003 with pre-existing HBc P25S substitution: only slightly decreased; also recorded: only a slight decrease
HBV; 100 mg q.d.
  patients with HBV DNA reduced below the lower limit of quantification: 1 (12.5%) number of patients (percentage
  patients with HBV pgRNA reduced below the lower limit of quantification (~ 2 log10 copies/mL): 1 (12.5%) number of patients (percentage
HBV; 100 mg q.d., 28 days
  maximum mean HBcrAg decrease: -0.61 log10 kU/mL
  mean maximum HBV DNA decline from baseline: -2.50 log10 IU/mL
  mean maximum HBV pgRNA decline from baseline: -2.35 log10 copies/mL
HBV; [3]
  maximum decrease of HBV DNA, patient E3010: -3.23 log10 IU/mL
  maximum decrease of HBV pgRNA, patient E3010: -3.71 log10 copies/mL
  maximum decrease of HBcrAg, patient E3010: -1.96 log10 kU/mL
  maximum decrease of HBsAg, patient E3010: -0.22 log10 IU/mL
HBV; 200 mg q.d.
  patients with HBV DNA reduced below the lower limit of quantification: 1 (12.5%) number of patients (percentage
  patients with HBV pgRNA reduced below the lower limit of quantification (~ 2 log10 copies/mL): 4 (50.0%) number of patients (percentage
HBV; 200 mg q.d., 28 days
  maximum mean HBcrAg decrease: -0.51 log10 kU/mL
  mean maximum HBV DNA decline from baseline: -2.75 log10 IU/mL
  mean maximum HBV pgRNA decline from baseline: -2.34 log10 copies/mL
HBV; 50–200 mg q.d., 28 days
  change of HBeAg level: Neither the HBsAg nor HBeAg levels decreased
  change of HBsAg level: Neither the HBsAg nor HBeAg levels decreased
  changes in levels of HBsAb, HBeAb, HBcAb: no clinically significant changes
[2]; healthy subjects
  accumulation rate after multiple administration: 1.7–2.3
  dose proportionality of mean plasma AUC and Cmax: increased in a dose-proportional manner
  food effect on drug absorption: Food had an effect on the drug absorption
  half-life after multiple administration: 12.2 to 21.7 h
  margin between plasma exposure and anti-HBV activity EC50 in vitro: 11.2–37.5 fold
  most common AE: increased ALT
[2]; single doses 25–450 mg, multiple doses 75–300 mg q.d. for 14 days
  safety and tolerability in healthy subjects: safe and well tolerated
